{"source": "patent US20140378408A1", "about": "“NUCLEOSIDE 5'-PHOSPHOROTHIOATE ANALOGUES AND USES THEREOF” (BAR-ILAN UNIVERSITY, an Israeli University, priority 2012, published 2014)", "key": {"human P2Y11-R": {"target": "T1, human P2Y11-R (Homo sapiens, UniProt Q96G91)", "T1 construct": "expressed in transfected cells; host or cells: 1321N1 astrocytoma cells", "T1 sequence (Q96G91 1-374)": "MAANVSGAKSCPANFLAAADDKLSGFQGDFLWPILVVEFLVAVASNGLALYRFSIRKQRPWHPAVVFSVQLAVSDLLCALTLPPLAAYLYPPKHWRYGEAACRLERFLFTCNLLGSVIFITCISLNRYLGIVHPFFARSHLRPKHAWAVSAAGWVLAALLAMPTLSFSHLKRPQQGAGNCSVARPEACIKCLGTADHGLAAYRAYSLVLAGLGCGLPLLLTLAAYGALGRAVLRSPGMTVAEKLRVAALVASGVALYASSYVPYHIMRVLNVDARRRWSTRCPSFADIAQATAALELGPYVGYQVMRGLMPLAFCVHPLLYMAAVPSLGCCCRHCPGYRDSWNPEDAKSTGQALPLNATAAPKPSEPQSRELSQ", "experiment": "[Ca^2+]i response of 1321N1 astrocytoma cells expressing P2Y11-R GFP", "format": "cell-based"}, "human NTPDase3": {"target": "T2, human NTPDase3 (Homo sapiens, UniProt O75355)", "T2 sequence (O75355 1-529)": "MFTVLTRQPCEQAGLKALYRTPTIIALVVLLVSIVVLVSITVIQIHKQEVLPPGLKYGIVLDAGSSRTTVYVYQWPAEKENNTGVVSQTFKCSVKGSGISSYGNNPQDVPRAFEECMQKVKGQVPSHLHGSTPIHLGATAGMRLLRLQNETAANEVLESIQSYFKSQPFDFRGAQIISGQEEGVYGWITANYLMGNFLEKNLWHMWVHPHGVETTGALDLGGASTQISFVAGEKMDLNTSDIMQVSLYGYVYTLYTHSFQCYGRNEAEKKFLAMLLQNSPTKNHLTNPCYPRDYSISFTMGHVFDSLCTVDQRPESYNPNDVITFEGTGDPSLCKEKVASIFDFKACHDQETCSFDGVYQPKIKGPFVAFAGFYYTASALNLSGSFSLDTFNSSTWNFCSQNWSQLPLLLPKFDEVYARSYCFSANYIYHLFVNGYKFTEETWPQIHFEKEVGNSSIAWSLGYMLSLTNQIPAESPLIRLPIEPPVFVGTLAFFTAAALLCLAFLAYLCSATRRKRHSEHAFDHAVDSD", "experiment": "Hydrolysis by human NTPDase3", "format": "in vitro ADME", "set-up": "made in house; host or cells: COS-7 cells (transfected; protein extract)", "details": "for Hydrolysis by NTPDase3: 100 μM, 1 h, activity with 100 μM ATP = 100%"}, "human NTPDase1": {"target": "T3, human NTPDase1 (Homo sapiens, UniProt P49961)", "T3 sequence (P49961 1-510)": "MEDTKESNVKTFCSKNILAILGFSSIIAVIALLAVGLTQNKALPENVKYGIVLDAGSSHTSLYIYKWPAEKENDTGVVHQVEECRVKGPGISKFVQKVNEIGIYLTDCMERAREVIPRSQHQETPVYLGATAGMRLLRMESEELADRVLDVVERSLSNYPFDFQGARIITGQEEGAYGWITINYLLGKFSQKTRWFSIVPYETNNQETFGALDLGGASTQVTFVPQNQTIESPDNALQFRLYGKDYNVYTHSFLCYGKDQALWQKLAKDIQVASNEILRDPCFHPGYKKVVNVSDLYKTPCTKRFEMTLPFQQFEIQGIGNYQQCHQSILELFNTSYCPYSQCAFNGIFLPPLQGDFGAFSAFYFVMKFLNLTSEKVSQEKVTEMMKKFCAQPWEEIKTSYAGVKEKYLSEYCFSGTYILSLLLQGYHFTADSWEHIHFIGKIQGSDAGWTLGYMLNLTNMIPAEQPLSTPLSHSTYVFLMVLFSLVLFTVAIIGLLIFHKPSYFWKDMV", "experiment": "Inhibition of NTPDase1 activity", "details": "for effect on human NTPDase1 activity: Table 5, ATP and analogue 100 μM, 100% activity = ATP alone, read as inhibition; for inhibition of the hydrolysis of ATP by NTPDase1: analogue and ATP 100 μM"}, "human NTPDase2": {"target": "T4, human NTPDase2 (Homo sapiens, UniProt Q9Y5L3)", "T4 construct": "made in house; host or cells: COS-7 cells (transfected; protein extract)", "T4 sequence (Q9Y5L3 1-495)": "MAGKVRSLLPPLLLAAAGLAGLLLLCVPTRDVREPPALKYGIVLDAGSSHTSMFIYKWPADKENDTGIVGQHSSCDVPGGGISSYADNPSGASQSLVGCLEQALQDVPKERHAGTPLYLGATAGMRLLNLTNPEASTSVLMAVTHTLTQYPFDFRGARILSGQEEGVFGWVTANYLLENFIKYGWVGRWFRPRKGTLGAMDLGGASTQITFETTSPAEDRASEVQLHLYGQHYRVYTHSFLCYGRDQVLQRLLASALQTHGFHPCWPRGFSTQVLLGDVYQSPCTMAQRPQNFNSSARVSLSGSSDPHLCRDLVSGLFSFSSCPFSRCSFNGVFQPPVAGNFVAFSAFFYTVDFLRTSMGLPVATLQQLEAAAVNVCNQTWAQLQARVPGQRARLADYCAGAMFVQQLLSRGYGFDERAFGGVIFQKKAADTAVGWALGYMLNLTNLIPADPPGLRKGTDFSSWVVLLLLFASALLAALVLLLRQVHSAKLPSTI", "experiment": "Inhibition of NTPDase2 activity", "format": "biochemical", "details": "for effect on human NTPDase2 activity: Table 5, ATP and analogue 100 μM, 100% activity = ATP alone; for inhibition of the hydrolysis of ATP by NTPDase2: analogue and ATP 100 μM"}}, "note": "Read-outs that look alike come from different tables or passages of the source.", "data": [{"molecule": "Nc1ncnc2c1ncn2[C@@H]1O[C@H](COP(O)(=S)OP(=O)(O)C(Cl)(Cl)P(=O)(O)O)[C@@H](O)[C@H]1O", "note": "(single isomer, unassigned) [APPCCl2P-α-S, adenosine 5′-[Pα-thio]-β,γ-(dichloromethylene)triphosphate]", "values": [{"measurement": "EC50", "setting": "human P2Y11-R", "result": "> 10", "unit": "µM"}]}, {"molecule": "Nc1ncnc2c1ncn2[C@@H]1O[C@H](COP(O)(=S)OP(=O)(O)C(Cl)(Cl)P(=O)(O)O)[C@@H](O)[C@H]1O", "note": "(single isomer, unassigned; isomer a) [APPCCl2P-α-S (isomer A), adenosine 5′-[Pα-thio]-β,γ-(dichloromethylene)triphosphate]", "values": [{"measurement": "Hydrolysis by NTPDase3", "setting": "human NTPDase3; listed as APPCCl2P-α-S A", "result": "5.2 ± 0.2", "unit": "%"}, {"measurement": "agonism at the P2Y11-receptor", "setting": "human P2Y11-R", "result": "not an agonist"}, {"measurement": "effect on human NTPDase1 activity", "setting": "human NTPDase1; listed as APPCCl2P-α-S A", "result": "0.5 ± 0.01", "unit": "%"}, {"measurement": "inhibition of the hydrolysis of ATP by NTPDase1", "setting": "human NTPDase1", "result": "did not interfere"}, {"measurement": "effect on human NTPDase2 activity", "setting": "human NTPDase2; listed as APPCCl2P-α-S A", "result": "11.2 ± 0.5", "unit": "%"}, {"measurement": "inhibition of the hydrolysis of ATP by NTPDase2", "setting": "human NTPDase2", "result": "did not interfere"}]}, {"molecule": "Nc1ncnc2c1ncn2[C@@H]1O[C@H](COP(O)(=S)OP(=O)(O)CP(=O)(O)O)[C@@H](O)[C@H]1O", "note": "(single isomer, unassigned; isomer a) [APPCP-α-S (isomer A), adenosine 5′-[Pα-thio]-β,γ-methylenetriphosphate]", "values": [{"measurement": "Hydrolysis by NTPDase3", "setting": "human NTPDase3; listed as APPCP-α-S A", "result": 4.2, "unit": "%"}, {"measurement": "agonism at the P2Y11-receptor", "setting": "human P2Y11-R", "result": "not an agonist"}, {"measurement": "effect on human NTPDase1 activity", "setting": "human NTPDase1; listed as APPCP-α-S A", "result": "58.4 ± 2.1", "unit": "%"}, {"measurement": "inhibition of the hydrolysis of ATP by NTPDase1", "setting": "human NTPDase1", "result": "did not interfere"}, {"measurement": "effect on human NTPDase2 activity", "setting": "human NTPDase2; listed as APPCP-α-S A", "result": "16.3 ± 0.6", "unit": "%"}, {"measurement": "inhibition of the hydrolysis of ATP by NTPDase2", "setting": "human NTPDase2", "result": "did not interfere"}]}, {"molecule": "Nc1ncnc2c1ncn2[C@@H]1O[C@H](COP(O)(=S)OP(=O)(O)C(Cl)(Cl)P(=O)(O)O)[C@@H](O)[C@H]1O", "note": "(single isomer, unassigned; isomer b) [APPCCl2P-α-S (isomer B), adenosine 5′-[Pα-thio]-β,γ-(dichloromethylene)triphosphate]", "values": [{"measurement": "Hydrolysis by NTPDase3", "setting": "human NTPDase3; listed as APPCCl2P-α-S B", "result": 5.4, "unit": "%"}, {"measurement": "times more potent than ATP at the P2Y11 receptor", "setting": "human P2Y11-R", "result": 2, "unit": "fold"}, {"measurement": "effect on human NTPDase1 activity", "setting": "human NTPDase1; listed as APPCCl2P-α-S B", "result": "21.6 ± 1.0", "unit": "%"}, {"measurement": "inhibition of the hydrolysis of ATP by NTPDase1", "setting": "human NTPDase1", "result": "did not interfere"}, {"measurement": "effect on human NTPDase2 activity", "setting": "human NTPDase2; listed as APPCCl2P-α-S B", "result": "12.7 ± 0.5", "unit": "%"}, {"measurement": "inhibition of the hydrolysis of ATP by NTPDase2", "setting": "human NTPDase2", "result": "did not interfere"}]}, {"molecule": "Nc1ncnc2c1ncn2[C@@H]1O[C@H](COP(O)(=S)OP(=O)(O)CP(=O)(O)O)[C@@H](O)[C@H]1O", "note": "(single isomer, unassigned; isomer b) [APPCP-α-S (isomer B), adenosine 5′-[Pα-thio]-β,γ-methylenetriphosphate]", "values": [{"measurement": "Hydrolysis by NTPDase3", "setting": "human NTPDase3; listed as APPCP-α-S B", "result": "4.8 ± 0.2", "unit": "%"}, {"measurement": "times more potent than ATP at the P2Y11 receptor", "setting": "human P2Y11-R", "result": 7, "unit": "fold"}, {"measurement": "effect on human NTPDase1 activity", "setting": "human NTPDase1; listed as APPCP-α-S B", "result": "0.5 ± 0.02", "unit": "%"}, {"measurement": "inhibition of the hydrolysis of ATP by NTPDase1", "setting": "human NTPDase1", "result": "did not interfere"}, {"measurement": "effect on human NTPDase2 activity", "setting": "human NTPDase2; listed as APPCP-α-S B", "result": "9.9 ± 0.4", "unit": "%"}, {"measurement": "inhibition of the hydrolysis of ATP by NTPDase2", "setting": "human NTPDase2", "result": "did not interfere"}]}, {"molecule": "Nc1ncnc2c1ncn2[C@@H]1O[C@H](COP(=O)(O)OP(O)(O)=S)[C@@H](O)[C@H]1O", "note": "[ADP-β-S, adenosine 5′-[β-thio]diphosphate, reference compound]", "values": [{"measurement": "Relative hydrolysis by NTPDase3", "setting": "human NTPDase3", "result": "2 ± 0.1 % ± SD of ADP or AP2A hydrolysis"}, {"measurement": "inhibition of the hydrolysis of ATP by NTPDase1", "setting": "human NTPDase1", "result": "less than 50%"}, {"measurement": "inhibition of the hydrolysis of ATP by NTPDase2", "setting": "human NTPDase2", "result": "less than 50%"}]}, {"molecule": "Nc1ncnc2c1ncn2[C@@H]1O[C@H](COP(=O)(O)CP(=O)(O)OP(O)(O)=S)[C@@H](O)[C@H]1O", "note": "[APCPP-γ-S, adenosine 5′-[Pγ-thio]-α,β-methylenetriphosphate]", "values": [{"measurement": "Hydrolysis by NTPDase3", "setting": "human NTPDase3", "result": "4.8 ± 0.2", "unit": "%"}, {"measurement": "EC50", "setting": "human P2Y11-R", "result": "> 10", "unit": "µM"}, {"measurement": "times more potent than ATP at the P2Y11 receptor", "setting": "human P2Y11-R", "result": 6.7, "unit": "fold"}, {"measurement": "EC50", "setting": "human P2Y11-R; agonist, read-out: EC50 at the P2Y11 receptor", "result": 1, "unit": "µM"}, {"measurement": "effect on human NTPDase1 activity", "setting": "human NTPDase1", "result": "18.7 ± 0.8", "unit": "%"}, {"measurement": "effect on human NTPDase2 activity", "setting": "human NTPDase2", "result": "15.4 ± 0.7", "unit": "%"}]}, {"molecule": "adenosine-5′-tetrathiobisphosphonate", "values": [{"measurement": "inhibition of the hydrolysis of ATP by NTPDase1", "setting": "human NTPDase1", "result": 54, "unit": "%"}, {"measurement": "inhibition of the hydrolysis of ATP by NTPDase2", "setting": "human NTPDase2", "result": 42, "unit": "%"}]}, {"molecule": "di-adenosine-5′,5″-tetrathiobisphosphonate", "values": [{"measurement": "Relative hydrolysis by NTPDase3", "setting": "human NTPDase3", "result": "2.0 ± 0.1 % ± SD of ADP or AP2A hydrolysis"}, {"measurement": "inhibition of the hydrolysis of ATP by NTPDase1", "setting": "human NTPDase1", "result": "~60", "unit": "%"}, {"measurement": "inhibition of the hydrolysis of ATP by NTPDase2", "setting": "human NTPDase2", "result": "5-20%"}]}]}
